B1: Trub II: fragment of GSE 24.2 containing the Trub II domain (SEQ ID NO13, peptide SEQ ID NO14) (nucleic acid, listed as Homo sapiens)
DNA: CACAGTGGTACTCTGGATCCCAAGGTGACTGGTTGTTTAATCGTGTGCATAGAACGAGCCACTCGCTTGGTGAAG
modifications: expressed or natural sequence

Legend:
293T cells = test: Cell viability of 293T cell lines treated with cisplatin (crystal violet); type: cell-based, human; settings: 293T cells stably expressing the construct vs empty vector pLNCX; cisplatin 0-100 μg/ml, 72 hours
Procedure: FIG. 2.—Cell viability and activation of the JNK and p38 death pathways in 293T cell lines: pLNCX and 24.2, treated with cisplatin. A) Cell viability. After seeding the 293T cells: expressing the empty vector (pLNCX) and GSE 24.2 (24.2) in 24-well plates, they were incubated with concentrations between 0-100 μg/ml of cisplatin. The cell viability was measured by means of the crystal violet technique after 72 hours of exposure to the drug. The data represent the mean of two experiments performed in quadruplicate. B) Activation kinetics. Subsequently, the activation of JNK and p38 was studied using antibodies that specifically recognise the active forms. As a load control, the levels of JNK-1 were detected.
FIG. 4.—Viability of the 293T cell lines: pLNCX, 24.2, DSK5′ and DSK treated with cisplatin. The cell lines described above (pLNCX and 24.2), the DSK 5′ cell line, which expresses a fragment of dyskerin described in the preceding figure, and a fourth one that overexpresses the complete cDNA of dyskerin (DSK) have been used. The viability was analyzed as shown in FIG. 1 A. The data represent the mean of two experiments performed in quadruplicate. […]
Growth curves. […] The number of cells was determined by estimating the absorbance at 595 nm. […]

hTERT promoter [1] = test: hTERT-luc reporter (luciferase) assay in 293T cells; type: cell-based, human; settings: 293T cells transiently transfected with construct vs empty vector; hTERT-luc, 24 hours
Procedure: FIG. 8.—Activity of the hTERT promoter in the 293T cell lines: pLNCX and 24.2 and in 293T cells transiently transfected with the pLNCX-24.2 construct and the pLNCX empty plasmid. A) Both the pLNCX and the 24.2 cells were transiently transfected with 0.25 μg of the hTERT-luc reporter vector. The cells were seeded in 60-mm plates. After 24 hours of transfection, the cells were lysed and the luciferase activity of 10 μg of total protein was quantified. As a transfection control, the cells were co-transfected with a reporter vector, CMV-Renilla. B) The 293T cells were transfected with the pLNCX vector and the 24.2 plasmid (5 μg), and both were co-transfected with 0.25 μg of the hTERT-luc reporter vector. After seeding the cells as in A, they were transfected with pLNCX and 24.2, and co-transfected with the hTERT-luc reporter vector; subsequently, they were treated as in A. As a transfection control, the CMV-Renilla reporter vector was used. The data correspond to the ratio of relative units of luciferase with respect to non-transfected cells. Each point represents the mean±the standard deviation obtained from 3 independent experiments. C) The 293T cells were transfected with the different GSE 24.4, DSK, TRUB I, TRUB II constructs and the pLNCX empty plasmid (5 μg), and co-transfected with 0.25 μg of the hTERT-luc reporter vector. The cells were seeded in 60-mm plates; after 24 hours of transfection, the cells were lysed and the luciferase activity of 10 μg of total protein was quantified. As a transfection control, the cells were co-transfected with a CMV-Renilla reporter vector. The data correspond to the ratio of relative units of luciferase with respect to non-transfected cells. Each point represents the mean±the standard deviation obtained from 3 independent experiments.
FIG. 9.—Activity of the hTERT promoter following treatment with cisplatin. A) Both the pLNCX cell line and the 24.2 cell line were transiently transfected with 0.25 μg of the hTERTIuc reporter vector. After 24 hours of transfection, they were treated with 3 μg/ml of cisplatin for 8 hours. The cells were seeded in 60-mm plates; after 24 hours of transfection and following treatment with cDDP, the cells were lysed and the luciferase activity of 10 μg of total protein was quantified. As a transfection control, the cells were co-transfected with a CMV-Renilla reporter vector. B) 293T cells which, after being transiently transfected with pLNCX and 24.2, were co-transfected with 0.25 μg of the hTERT-luc reporter vector and treated as in A. After seeding the cells as in A, they were transfected with pLNCX and 24.2, and co-transfected with the hTERT-luc reporter vector; subsequently, they were treated as in A. As a transfection control, the CMV-Renilla reporter vector was used. The data correspond to the ratio of relative units of luciferase with respect to non-transfected cells. Each point represents the mean±the standard deviation obtained from 3 independent experiments.
A) The 293T cells were co-transfected with different constructs (10 μg/DNA per million cells) and the hTERT-luc reporter (1 μg per million cells). The specified cell lines were co-transfected with the hTERT-luc reporter and different quantities of the Mad/myc expression vector. (B) The specified cell lines were co-transfected with the HIV-luc reporter and with different quantities of the Mad/myc expression vector. After 24 h of transfection, the cells were stimulated with 50 ng/ml of TNF-α for 6 hours and the luciferase activity was analysed as described above. CMV-Renilla (0.1 μg/ml per million cells) was used as a control for the transfection efficiency. The data represent the mean of two experiments performed in quadruplicate.
The pseudouridine synthase TRUB domain of dyskerin comprises two structural subdomains: the Trub I and II motifs (Zucchini et al., 2003). These two domains are critical to maintain the global protein structure of dyskerin. […]

hTERT promoter [2] = test: hTERT-luc reporter assay in VA13 cells; type: cell-based; settings: co-transfection with hTERT-luc, 24 h
Procedure: FIG. 10.—Telomerase activity and expression levels of hTERT and hTR in the cells of patients with dyskeratosis congenita and in VA13 cells transiently transfected with the 24.2 plasmid or the pLNCX empty vector. A) Telomerase activity measured by means of the TRAP assay in the cells of patients with dyskeratosis congenita (DC-1, DC-2 and DC-3) and in the carrier parent (DC-C) following electroporation of 45 μg of the pLNCX empty plasmid (−) or the pLNCX 24.2 vector (+) by 15 million cells. B) RT-PCR of the RNA from cells of one of the patients with dyskeratosis congenita, DC3 transfected with the empty vector and DC3 transfected with the 24.2 plasmid, using oligos specific for hTERT and hTR. As a starting RNA control, oligos for the amplification of GAPDH were used. C) Telomerase activity in VA13 cells. […] 24 hours later, the telomerase activity was analysed as described above, using dilutions of the protein extracts from each transfection. […] RNA levels were detected as described above. […] After 24 h of transfection, the luciferase activity was analyzed as described above. […]
Luciferase assay. The transcriptional regulation of hTERT was measured by means of the Luciferase reporter gene, preceded by a 3,402-pb sequence of the hTERT promoter. […] The cell lysates were centrifuged and the expression of luciferase was quantified with 10 μg of protein from the supernatant, using a Berthold luminometer. […]

| Molecule | cell viability in response to cisplatin (293T cells) | activity of the hTERT promoter, transient expression (hTERT promoter [1]) | activity of the hTERT promoter in VA13 cells (hTERT promoter [2]) |
| --- | --- | --- | --- |
| DSK 5′: construct containing the first 500 nucleotides of human dyskerin, cloned in pLNCX [reference compound] | do not have any activity whatsoever |  |  |
| Trub I: fragment of GSE 24.2 containing the Trub I domain (SEQ ID NO11, peptide SEQ ID NO12) (DNA GGTTTCATTAATCTTGACAAGCCCTCTAACCCCTCTTCCCATGAGGTGGTAGCC; expressed or natural sequence; listed as Homo sapiens) |  | act by activating the expression of the hTERT promoter | activated the hTERT promoter |
| B1 |  | act by activating the expression of the hTERT promoter |  |

Reference: patent US9587002B2, “Sequence of nucleotides and peptides GSE 24.2 of dyskerin, which can induce telomerase activity, method for obtaining same, therapeutic compositions and applications thereof” (CONSEJO SUPERIOR DE INVESTIGACIONES CIENTIFICAS, priority 2005, dated 2017)
